Test results published in patent US4473554A, “Bestatin-related compounds as immunopotentiator” (Zaidan Hojin Biseibutsu Kagaku Kenkyu Kai, priority 1982, dated 1984).
Like-named read-outs stand apart in the source and are kept apart here. Each block holds one compound with its values, some of them ahead of it.

Assays:
aminopeptidase B = molecular target: T1, aminopeptidase B (Rattus norvegicus, UniProt O09175); assay: aminopeptidase B-inhibiting activity (modified Hopsu method, arginine β-naphthylamide substrate); format: biochemical; details: 37° C., pH 7.0, 30 minutes
T1 sequence (O09175 1-650): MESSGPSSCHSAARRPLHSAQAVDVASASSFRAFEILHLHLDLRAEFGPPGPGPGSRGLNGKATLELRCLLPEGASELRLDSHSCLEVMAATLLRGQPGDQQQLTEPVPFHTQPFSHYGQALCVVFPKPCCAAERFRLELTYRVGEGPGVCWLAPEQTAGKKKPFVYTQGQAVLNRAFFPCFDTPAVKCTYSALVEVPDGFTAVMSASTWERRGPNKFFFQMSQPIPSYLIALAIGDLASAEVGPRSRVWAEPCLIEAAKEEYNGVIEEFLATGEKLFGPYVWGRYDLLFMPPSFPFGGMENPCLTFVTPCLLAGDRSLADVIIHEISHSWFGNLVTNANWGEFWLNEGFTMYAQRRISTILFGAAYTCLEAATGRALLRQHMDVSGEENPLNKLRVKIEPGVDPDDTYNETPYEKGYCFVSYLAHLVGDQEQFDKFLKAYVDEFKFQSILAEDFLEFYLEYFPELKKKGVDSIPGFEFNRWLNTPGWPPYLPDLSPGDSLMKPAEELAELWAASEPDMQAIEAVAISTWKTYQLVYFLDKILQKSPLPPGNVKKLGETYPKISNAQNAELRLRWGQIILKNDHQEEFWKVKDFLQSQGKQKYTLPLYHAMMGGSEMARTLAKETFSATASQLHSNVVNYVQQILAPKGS
Description: The aminopeptidase B-inhibiting activity was determined according to a modification of the method of V. K. Hopsu et al. described in the "Archives of Biochemistry and Biophysics" Vol. 114, 557 (1966). Thus, a mixture of 0.8 ml of 0.1 mM of (S)-arginine β-naphthylamide and 1.0 ml of 0.1M Tris-hydrochloride buffer (pH 7.0) was admixed with 0.7 ml of 0.1M Tris-hydrochloride buffer (pH 7.0) containing the test compound and then heated at 37° C. for 3 minutes. […] After the reaction at 37° C. for 30 minutes, the reaction solution was admixed with 0.6 ml of 0.1M acetate buffer (pH 4.2) containing 1.0 mg/ml of diazonium salt of o-aminoazotoluene (Garnet GBC) and 1.0% of a surfactant "Tween" 20 (a registered trademark) to stop the enzymatic reaction and then allowed to stand at ambient temperature for 15 minutes. After this, absorbance (a) at 525 nm of the reaction solution was measured by spectrophotometer. For the control, the above procedure was repeated without the test compound and the adsorbence (b) was measured. Percentages for inhibition to aminopeptidase B were calculated according to the equation: [formula] Inhibition percentages at various concentrations of the test compound were measured, and from the values of inhibition percentages measured 50% Inhibition Concentration (IC50) was evaluated.

ICR-strain mice = assay: acute toxicity, intraperitoneal, ICR-strain mice; format: in vivo, mouse; details: dosage of 100 mg/kg
Description: In order to estimate the acute toxicity of the compound of the formula (VIII) or (IIId), some of the test compound was intraperitoneally given to ICR-strain mice (in groups each consisting of 6 mice, male, 5 weeks-aged, average body weight 20 g.), when all the tested mice tolerated intraperitoneal administration of (2S,3R)-APHA; (2S)-2-N-[(2'S,3'R)-3'-amino-2'-hydroxy-4'-phenyl-butanoyl]amino-4-methyl- pentanol; (2S)-2-N-[(2'S,3'R)-3'-amino-2'-hydroxy-4'-phenylbutanoyl-(S)-leucyl]amino-4-methyl-pentanol; (2S,3R)-3-amino-2-hydroxy-4-phenylbutanoyl-(S)-leucyl-(S)-leucine; (2S,3R)-3-amino-2-hydroxy-4-phenyl-butanoyl-(S)-leucyl-(S)-arginine; (2S,3R)-3-amino-2-hydroxy-4-phenylbutanoyl-(S)-leucyl-(S)-asparagine; (2R,3R)-3-amino-2-hydroxy-4-phenylbutanoyl-(S)-leucyl-(R)-asparagine; and (2S,3R)-3-amino-2-hydroxy-4-phenylbutanoyl-(S)-leucyl-(R)-arginine at a dosage of 100 mg/kg.

[1] = test system: D.T.H. response in mice immunized with sheep red blood cell (SRBC); assay: Delayed Type Hypersensitivity (D.T.H.) footpad test in mice immunized with SRBC, Example 2; format: in vivo, mouse; details: CDF1 mice, control = 100
Description: This Example describes the tests for evaluation of the immunopotentiating activity of the new compound of this invention.
A suspension of 10^8 sheep red blood cells in 0.05 ml of physiological saline was subcutaneously injected at the time of immunization into the right hind footpad of each CDF1 -mouse under test (female, 8 weeks-aged, 5 mice in each group) to establish D.T.H. Simultaneously to the immunization, […] prepared by dissolving the test compound in physiological saline and then filtering the solution by a micropore filter (pore diameter: 0.22 micrometers). Four days later, 10^8 SRBC were subcutaneously injected into the left […] footpad of each test mouse for elicitation of the D.T.H. response. 24 Hours after the elicitating injection, the increased thickness of the left hind footpad was measured with calipers to estimate the degree of swelling in the footpad. The swelling degree is expressed in term of the values calculated by the equation: [formula] The degree of swelling serves to evaluate the degree of cell-mediated immunity involved. For comparison, a suspension of bestatin dispersed in water was tested in the same way as above.

[2] = test system: D.T.H. response in mice immunized with SRBC as antigen; assay: D.T.H. footpad test in mice immunized with SRBC, Examples 3-6 (dosages per mouse); format: in vivo; details: for enhancement of D.T.H. response / cell-mediated immunity: oral, 10 mcg/mouse or 1 mcg/mouse
Description: The effect of (2S,3R)-AHPA on cell-mediated immunity was tested in the same way in Example 2, namely according to the D.T.H. technique using mice immunized with sheep red blood cell as antigen. Thus, a suspension of 10^8 sheep red blood cells in 0.05 ml of physiological saline were subcutaneously injected at the time of immunization into the right hind footpad of each CDF1 -mouse under test (female, 8 weeks-aged, 5 mice in each group) to establish D.T.H. […] The degree of swelling was evaluated. By way of comparison, bestatin was tested in the same way as above. […] The effect of (2S,3R)-AHPA on the D.T.H. response was estimated in the same manner as in the above procedure (A) of Example 3 by orally administering 1 mcg/mouse, 0.1 mcg/mouse or 0.01 mcg/mouse of (2S,3R)-AHPA to each mouse under test. […] The effect of the mode of administering (2S,3R)-AHPA on the D.T.H. response was estimated in the same manner as in the procedure (A) of Example 3, except that the test compound (as aqueous solution) was injected intraperitoneally in stead of being given orally.

[3] = oral 0.05 mg/kg at immunization
[4] = Table 7, oral 1 mcg/mouse, control = 100
[5] = Table 7, oral 10 mcg/mouse, control = 100

SMILES: CC(C)C[C@@H](CO)NC(=O)[C@@H](O)[C@H](N)Cc1ccccc1 [Compound No. 2, (2S)-2-N-[(2'S,3'R)-3'-amino-2'-hydroxy-4'-phenylbutanoyl]amino-4-methyl-pentanol]
IC50 (aminopeptidase B): 0.65 µg/mL
acute toxicity: tolerance of intraperitoneal administration (ICR-strain mice): tolerated
Degree of swelling [1, 3]: 106%
Degree of swelling ([1]; oral 0.5 mg/kg at immunization): 126%

SMILES: CC(C)C[C@H](NC(=O)[C@@H](O)[C@H](N)Cc1ccccc1)C(=O)N[C@@H](CC(N)=O)C(=O)O
acute toxicity: tolerance of intraperitoneal administration (ICR-strain mice): tolerated

SMILES: COC(=O)[C@@H](O)[C@H](N)Cc1ccccc1.Cl [(2S,3R)-AHPA methylester hydrochloride]
Increase in thickness of footpad (± S.D.) ([2]; Table 7, oral 1 mcg/mouse): 11.7 ± 1.29 × 0.1 mm
Degree of swelling [2, 4]: 134%
Increase in thickness of footpad (± S.D.) ([2]; Table 7, oral 10 mcg/mouse): 11.5 ± 1.12 × 0.1 mm
Degree of swelling [2, 5]: 132%
enhancement of D.T.H. response / cell-mediated immunity [2]: active substantially as much as the free acid form of (2S,3R)-AHPA

IC50 (aminopeptidase B): 53 µg/mL
SMILES: CC(C)C[C@H](NC(=O)C(O)[C@H](N)Cc1ccccc1)C(=O)N[C@H](Cc1ccccc1)[C@H](O)C(=O)O (stereo partly drawn) [Compound No. 8, (3R)-N-[(2'S,3'R)-3'-amino-2'-hydroxy-4'-phenylbutanoyl-(S)-leucyl]amino-(2S)-2-hydroxy-4-phenylbutanoic acid]

solubility in water (solubility in water): soluble in water
SMILES: NC(=O)[C@H](O)[C@H](N)Cc1ccccc1 [(2R,3R)-AHPA amide]

SMILES: N[C@@H](Cc1ccccc1)[C@@H](O)C(=O)O [(2R,3S)-AHPA]
Degree of swelling ([2]; Table 6, oral 1 mcg/mouse): 133%
Increased in thickness of footpad (± S.D.) ([2]; Table 6, oral 1 mcg/mouse): 11.7 ± 1.15 × 0.1 mm
Degree of swelling ([2]; Table 6, oral 10 mcg/mouse): 120%
Increased in thickness of footpad (± S.D.) ([2]; Table 6, oral 10 mcg/mouse): 10.6 ± 0.97 × 0.1 mm

IC50 (aminopeptidase B): 5.4 µg/mL
SMILES: CC(C)C[C@@H](CO)NC(=O)[C@H](CC(C)C)NC(=O)C(O)[C@H](N)Cc1ccccc1 (stereo partly drawn) [Compound No. 4, (2S)-2-N-[(2'S,3'R)-3'-amino-2'-hydroxy-4'-phenylbutanoyl-(S)-leucyl]amino-4-methyl-pentanol]
Degree of swelling ([1]; oral 0.5 mg/kg at immunization): 103%

IC50 (aminopeptidase B): 15 µg/mL
SMILES: CC(C)C[C@H](NC(=O)[C@@H](O)[C@H](N)Cc1ccccc1)C(=O)N[C@H](CC(C)C)C(=O)O [Compound No. 7, (2S,3R)-3-amino-2-hydroxy-4-phenylbutanoyl-(S)-leucyl-(R)-leucine]
Degree of swelling ([1]; oral 0.5 mg/kg at immunization): 120%

SMILES: CC(C)C[C@@H](CO)NC(=O)[C@H](CC(C)C)NC(=O)[C@@H](O)[C@H](N)Cc1ccccc1
acute toxicity: tolerance of intraperitoneal administration (ICR-strain mice): tolerated

solubility in water (solubility in water): soluble in water
SMILES: N[C@H](Cc1ccccc1)[C@@H](O)C(=O)O [(2R,3R)-AHPA]
Degree of swelling ([2]; Table 6, oral 1 mcg/mouse): 135%
Increased in thickness of footpad (± S.D.) ([2]; Table 6, oral 1 mcg/mouse): 11.9 ± 0.74 × 0.1 mm
Increased in thickness of footpad (± S.D.) ([2]; Table 6, oral 10 mcg/mouse): 9.6 ± 0.65 × 0.1 mm

solubility in water (solubility in water): soluble in water
SMILES: N[C@H](Cc1ccc(O)cc1)[C@H](O)C(=O)O [(2S,3R)-p-OH-AHPA, (2S,3R)-3-amino-2-hydroxy-4-p-hydroxyphenylbutanoic acid]
Increase in thickness of footpad (+ S.D.) ([2]; Table 8, oral 1 mcg/mouse): 9.7 ± 0.54 × 0.1 mm
Degree of swelling ([2]; Table 8, oral 1 mcg/mouse, control = 100): 114%
Increase in thickness of footpad (+ S.D.) ([2]; Table 8, oral 10 mcg/mouse): 11.0 ± 1.75 × 0.1 mm
Degree of swelling ([2]; Table 8, oral 10 mcg/mouse, control = 100): 129%
enhancement of D.T.H. response / cell-mediated immunity [2]: enhances likewise the cell-mediatedimmunity

SMILES: Cl.N[C@H](Cc1ccccc1)[C@H](O)CO [Compound No. 1, (2S,3R)-3-amino-2-hydroxy-4-phenyl-1-butanol-hydrochloride]
IC50 (aminopeptidase B; read-out: IC50): > 230 µM
solubility in water (solubility in water): soluble in water
Degree of swelling [1, 3]: 123%
Degree of swelling ([1]; oral 0.5 mg/kg at immunization): 129%

IC50 (aminopeptidase B): 48.9 µg/mL
solubility in water (solubility in water): soluble in water
SMILES: CC(=O)N[C@H](Cc1ccccc1)[C@H](O)C(=O)N[C@H](CO)CC(C)C [Compound No. 3, (2S)-2-N-[(2'S,3'R)-3'-N-acetylamino-2'-hydroxy-4'-phenylbutanoyl]amino-4-methyl-pentanol]
Degree of swelling [1, 3]: 124%
Degree of swelling ([1]; oral 0.5 mg/kg at immunization): 131%

SMILES: NC(=O)[C@@H](O)[C@H](N)Cc1ccccc1 [(2S,3R)-AHPA amide]
Increase in thickness of footpad (± S.D.) ([2]; Table 7, oral 1 mcg/mouse): 9.8 ± 0.82 × 0.1 mm
Degree of swelling [2, 4]: 111%
Increase in thickness of footpad (± S.D.) ([2]; Table 7, oral 10 mcg/mouse): 11.5 ± 1.20 × 0.1 mm
Degree of swelling [2, 5]: 131%

SMILES: CC(C)C[C@H](NC(=O)[C@H](CC(C)C)NC(=O)[C@@H](O)[C@H](N)Cc1ccccc1)C(=O)O
acute toxicity: tolerance of intraperitoneal administration (ICR-strain mice): tolerated

SMILES: N[C@@H](Cc1ccccc1)[C@H](O)C(=O)O [(2S,3S)-AHPA]
Degree of swelling ([2]; Table 6, oral 1 mcg/mouse): 111%
Degree of swelling ([2]; Table 6, oral 10 mcg/mouse): 135%
Increased in thickness of footpad (± S.D.) ([2]; Table 6, oral 10 mcg/mouse): 11.9 ± 1.36 × 0.1 mm

SMILES: CC(C)C[C@H](NC(=O)[C@@H](O)[C@H](N)Cc1ccccc1)C(=O)N[C@@H](CCCNC(=N)N)C(=O)O
acute toxicity: tolerance of intraperitoneal administration (ICR-strain mice): tolerated
